ChEMBL document CHEMBL2094260, “Malaria Box Tuberculosis Screening Data”

These compounds were tested on Mycobacterium tuberculosis (assay: MMV: Screen against Mtb, single point, non replicating, at 25uM).
Assay type: functional

How did the inhibition at 25 µM turn out when `OC1CCCCC1C1(NC(=S)Nc2ccccc2)CCCCC1` (stereo not drawn) was run?
Its inhibition at 25 µM is 13.9%.

With `CC1CCN(Cc2c(O)ccc3cc(-c4nc5ccccc5s4)c(=O)oc23)CC1` as the compound, how does the inhibition at 25 µM read?
The inhibition at 25 µM was 12%.

With `CCN(Cc1ccccc1)C1CCN(Cc2cc(Br)ccc2O)CC1` as the compound, how does the inhibition at 25 µM read?
The inhibition at 25 µM was 12.7%.

With `CCOc1ccc(Nc2ccnc3cc(Cl)ccc23)cc1` as the compound, how does the inhibition at 25 µM read?
The inhibition at 25 µM was 8.59%.

`Oc1c(C(Nc2ccccn2)c2cccc(Oc3ccccc3)c2)ccc2cccnc12` (stereo not drawn) was tested. Which inhibition at 25 µM did it give?
The inhibition at 25 µM was 11.8%.

With `O=C1CC(O)(C(F)(F)C(F)(F)F)Oc2ccccc21` (stereo not drawn) as the compound, how does the inhibition at 25 µM read?
Its inhibition at 25 µM is 39.1%.

Which inhibition at 25 µM does the source give for `CCN(CC)S(=O)(=O)c1ccc(-c2csc(Nc3ccc(C)c(C)c3)n2)cc1` here?
The inhibition at 25 µM was 14.1%.

With `Cc1ccc(CSCc2ccc(C(=O)NC3CC3)o2)cc1` as the compound, how does the inhibition at 25 µM read?
Its inhibition at 25 µM is 11.3%.

`FC(F)(F)c1cccc(CNC2CCN(CCc3ccccc3)CC2)c1` was tested. Which inhibition at 25 µM did it give?
Its inhibition at 25 µM is 2.96%.

With `CCOc1cccc(C(=O)Nc2ccc(-c3nc4ccccc4[nH]3)cc2)c1` as the compound, how does the inhibition at 25 µM read?
Its inhibition at 25 µM is 18%.

How did the inhibition at 25 µM turn out when `Cc1ccc(C(=O)c2oc3ccc4c(C)cc(=O)oc4c3c2C)cc1` was run?
The inhibition at 25 µM was 5.4%.

How did the inhibition at 25 µM turn out when `CCCCNCC(O)(c1ccc(Cl)cc1)c1ccc(Cl)cc1` was run?
Its inhibition at 25 µM is 9.41%.

How did the inhibition at 25 µM turn out when `CCN1CCN(c2c(C(=O)c3ccccc3)cnc3cc(OC)c(OC)cc23)CC1` was run?
Its inhibition at 25 µM is 1.14%.

`C=C(C)CCC(C)N1CCC(N2CCC(C(=O)NCCc3ccccc3)CC2)CC1` (stereo not drawn) was tested. Which inhibition at 25 µM did it give?
Its inhibition at 25 µM is 15.2%.

How did the inhibition at 25 µM turn out when `O=C(Nc1ccc(N2CCCCC2)c(Cl)c1)c1ccc(Br)o1` was run?
The inhibition at 25 µM was 11.9%.

With `CCn1c(CN2CCN(Cc3ccccc3)CC2)nc2cc(NC(=O)c3cccs3)ccc21` as the compound, how does the inhibition at 25 µM read?
The inhibition at 25 µM was 15.2%.

How did the inhibition at 25 µM turn out when `CCOc1c(Cl)cc(CNC(C)C(O)c2ccccc2)cc1OC` (stereo not drawn) was run?
Its inhibition at 25 µM is 10.3%.

`COc1ccc(-c2nonc2NC(=O)c2cccc(Cl)c2)cc1OC` was tested. Which inhibition at 25 µM did it give?
The inhibition at 25 µM was 15.7%.

How did the inhibition at 25 µM turn out when `CN1C=C(c2ccc3ccccc3n2)C(c2c[nH]c3ccccc23)c2ccccc21` (stereo not drawn) was run?
Its inhibition at 25 µM is 20.1%.

`C=CC12CCN(CC1)C(C(O)c1ccnc3ccc(OC)cc13)C2` (stereo not drawn) was tested. Which inhibition at 25 µM did it give?
Its inhibition at 25 µM is 18.8%.

How did the inhibition at 25 µM turn out when `CCOc1ccc(Nc2c3ccccc3nc3ccccc23)cc1` was run?
The inhibition at 25 µM was 15.9%.

How did the inhibition at 25 µM turn out when `CCCN(CCC)CC(O)COc1ccccc1C(=O)Nc1ccccc1` (stereo not drawn) was run?
Its inhibition at 25 µM is 17.1%.

`OC(CNC1CCCC1)Cn1c2ccccc2c2ccccc21` (stereo not drawn) was tested. Which inhibition at 25 µM did it give?
The inhibition at 25 µM was 13.1%.

How did the inhibition at 25 µM turn out when `CCCOCc1cc(CN2CCN(c3cccc(Cl)c3)CC2)c(O)c2ncccc12` was run?
Its inhibition at 25 µM is 1.85%.

`Clc1ccc2[nH]c3c(NCCCN4CCOCC4)ncnc3c2c1` was tested. Which inhibition at 25 µM did it give?
The inhibition at 25 µM was 21.6%.

`CCN1CCN(Cc2ccc(NC(=O)c3cc4ccc5cccnc5c4[nH]3)cc2)CC1` was tested. Which inhibition at 25 µM did it give?
The inhibition at 25 µM was 3.13%.

Which inhibition at 25 µM does the source give for `Oc1ccc(-c2nc(-c3ccc4oc5ccc(-c6[nH]c(-c7ccc(O)cc7)nc6-c6ccccc6)cc5c4c3)c(-c3ccccc3)[nH]2)cc1` here?
The inhibition at 25 µM was 13%.

With `CCc1ccc(Nc2cc(C)nc3nc(C)nn23)cc1` as the compound, how does the inhibition at 25 µM read?
Its inhibition at 25 µM is 9.06%.

How did the inhibition at 25 µM turn out when `COc1ccc2sc(N(Cc3cccnc3)C(=O)c3ccc(C#N)cc3)nc2c1` was run?
Its inhibition at 25 µM is 5.22%.

Which inhibition at 25 µM does the source give for `COc1cccc(-c2nn(C)c3sc(C(=O)NCCN4CCN(c5ccccc5F)CC4)cc23)c1` here?
The inhibition at 25 µM was 14.8%.

Which inhibition at 25 µM does the source give for `COc1ccc(-c2nc(NC(=O)CS(=O)(=O)c3ccc(F)cc3)sc2C)cc1` here?
Its inhibition at 25 µM is 21.5%.

`COc1cc(C(=O)Nc2ccc(-c3nc4ccccc4[nH]3)cc2)cc(OC)c1OC` was tested. Which inhibition at 25 µM did it give?
Its inhibition at 25 µM is 19.1%.

For `CC1=C(CC(=O)c2cccc([N+](=O)[O-])c2)C(=O)c2ccccc2C1=O`, which inhibition at 25 µM is on record?
The inhibition at 25 µM was 20.1%.

With `CCCc1c(C)nc2ccc(Br)cc2c1O` as the compound, how does the inhibition at 25 µM read?
The inhibition at 25 µM was 12.5%.

With `COc1ccc2nc(N)nc(C)c2c1` as the compound, how does the inhibition at 25 µM read?
Its inhibition at 25 µM is -10.5%.

Which inhibition at 25 µM does the source give for `CCOc1cc2c(cc1OCC)C(c1cc(C)c(O)c(C)c1)NCC2` (stereo not drawn) here?
The inhibition at 25 µM was 11.5%.

`COc1ccccc1C(=O)ON=C(N)Cc1cccc2ccccc12` was tested. Which inhibition at 25 µM did it give?
The inhibition at 25 µM was 32.7%.

`CCN(CC)c1ccc(NC(=O)c2cccs2)cc1` was tested. Which inhibition at 25 µM did it give?
Its inhibition at 25 µM is 13.1%.

`CCOc1cc2c(cc1OCC)C(c1cc(OC)c(O)cc1Cl)NCC2` (stereo not drawn) was tested. Which inhibition at 25 µM did it give?
The inhibition at 25 µM was 13.6%.

The compounds below were run on Mycobacterium tuberculosis (assay: MMV: Screen against Mtb, single point, replicating, at 25uM).
Assay type: functional

With `OC1CCCCC1C1(NC(=S)Nc2ccccc2)CCCCC1` (stereo not drawn) as the compound, how does the inhibition at 25 µM read?
The inhibition at 25 µM was 7.76%.

Which inhibition at 25 µM does the source give for `CC1CCN(Cc2c(O)ccc3cc(-c4nc5ccccc5s4)c(=O)oc23)CC1` here?
Its inhibition at 25 µM is 8.23%.

`CCN(Cc1ccccc1)C1CCN(Cc2cc(Br)ccc2O)CC1` was tested. Which inhibition at 25 µM did it give?
Its inhibition at 25 µM is 16.8%.

How did the inhibition at 25 µM turn out when `CCOc1ccc(Nc2ccnc3cc(Cl)ccc23)cc1` was run?
The inhibition at 25 µM was 54.6%.

With `Oc1c(C(Nc2ccccn2)c2cccc(Oc3ccccc3)c2)ccc2cccnc12` (stereo not drawn) as the compound, how does the inhibition at 25 µM read?
The inhibition at 25 µM was -15.4%.

With `O=C1CC(O)(C(F)(F)C(F)(F)F)Oc2ccccc21` (stereo not drawn) as the compound, how does the inhibition at 25 µM read?
The inhibition at 25 µM was 13%.

With `CCN(CC)S(=O)(=O)c1ccc(-c2csc(Nc3ccc(C)c(C)c3)n2)cc1` as the compound, how does the inhibition at 25 µM read?
Its inhibition at 25 µM is 6.89%.

How did the inhibition at 25 µM turn out when `Cc1ccc(CSCc2ccc(C(=O)NC3CC3)o2)cc1` was run?
The inhibition at 25 µM was 24.4%.

`FC(F)(F)c1cccc(CNC2CCN(CCc3ccccc3)CC2)c1` was tested. Which inhibition at 25 µM did it give?
The inhibition at 25 µM was 22.8%.

For `CCOc1cccc(C(=O)Nc2ccc(-c3nc4ccccc4[nH]3)cc2)c1`, which inhibition at 25 µM is on record?
The inhibition at 25 µM was 15.5%.

`Cc1ccc(C(=O)c2oc3ccc4c(C)cc(=O)oc4c3c2C)cc1` was tested. Which inhibition at 25 µM did it give?
The inhibition at 25 µM was 1.18%.

How did the inhibition at 25 µM turn out when `CCCCNCC(O)(c1ccc(Cl)cc1)c1ccc(Cl)cc1` was run?
Its inhibition at 25 µM is 16.9%.

`CCN1CCN(c2c(C(=O)c3ccccc3)cnc3cc(OC)c(OC)cc23)CC1` was tested. Which inhibition at 25 µM did it give?
The inhibition at 25 µM was 5.25%.

For `C=C(C)CCC(C)N1CCC(N2CCC(C(=O)NCCc3ccccc3)CC2)CC1` (stereo not drawn), which inhibition at 25 µM is on record?
The inhibition at 25 µM was -4.8%.

With `O=C(Nc1ccc(N2CCCCC2)c(Cl)c1)c1ccc(Br)o1` as the compound, how does the inhibition at 25 µM read?
Its inhibition at 25 µM is 18.9%.

`CCn1c(CN2CCN(Cc3ccccc3)CC2)nc2cc(NC(=O)c3cccs3)ccc21` was tested. Which inhibition at 25 µM did it give?
The inhibition at 25 µM was 12.5%.

How did the inhibition at 25 µM turn out when `CCOc1c(Cl)cc(CNC(C)C(O)c2ccccc2)cc1OC` (stereo not drawn) was run?
Its inhibition at 25 µM is 12.7%.

How did the inhibition at 25 µM turn out when `COc1ccc(-c2nonc2NC(=O)c2cccc(Cl)c2)cc1OC` was run?
Its inhibition at 25 µM is 9.93%.

Which inhibition at 25 µM does the source give for `CN1C=C(c2ccc3ccccc3n2)C(c2c[nH]c3ccccc23)c2ccccc21` (stereo not drawn) here?
Its inhibition at 25 µM is 19.7%.

With `C=CC12CCN(CC1)C(C(O)c1ccnc3ccc(OC)cc13)C2` (stereo not drawn) as the compound, how does the inhibition at 25 µM read?
The inhibition at 25 µM was 27.2%.

For `CCOc1ccc(Nc2c3ccccc3nc3ccccc23)cc1`, which inhibition at 25 µM is on record?
The inhibition at 25 µM was 51.8%.

`CCCN(CCC)CC(O)COc1ccccc1C(=O)Nc1ccccc1` (stereo not drawn) was tested. Which inhibition at 25 µM did it give?
Its inhibition at 25 µM is 20.9%.

How did the inhibition at 25 µM turn out when `OC(CNC1CCCC1)Cn1c2ccccc2c2ccccc21` (stereo not drawn) was run?
The inhibition at 25 µM was 27.5%.

For `CCCOCc1cc(CN2CCN(c3cccc(Cl)c3)CC2)c(O)c2ncccc12`, which inhibition at 25 µM is on record?
The inhibition at 25 µM was 5.25%.

For `Clc1ccc2[nH]c3c(NCCCN4CCOCC4)ncnc3c2c1`, which inhibition at 25 µM is on record?
The inhibition at 25 µM was 16.2%.

`CCN1CCN(Cc2ccc(NC(=O)c3cc4ccc5cccnc5c4[nH]3)cc2)CC1` was tested. Which inhibition at 25 µM did it give?
The inhibition at 25 µM was 18.3%.

For `Oc1ccc(-c2nc(-c3ccc4oc5ccc(-c6[nH]c(-c7ccc(O)cc7)nc6-c6ccccc6)cc5c4c3)c(-c3ccccc3)[nH]2)cc1`, which inhibition at 25 µM is on record?
Its inhibition at 25 µM is 19.2%.

How did the inhibition at 25 µM turn out when `CCc1ccc(Nc2cc(C)nc3nc(C)nn23)cc1` was run?
Its inhibition at 25 µM is 11.4%.

How did the inhibition at 25 µM turn out when `COc1ccc2sc(N(Cc3cccnc3)C(=O)c3ccc(C#N)cc3)nc2c1` was run?
The inhibition at 25 µM was 15%.

Which inhibition at 25 µM does the source give for `COc1cccc(-c2nn(C)c3sc(C(=O)NCCN4CCN(c5ccccc5F)CC4)cc23)c1` here?
The inhibition at 25 µM was 29.5%.

For `COc1ccc(-c2nc(NC(=O)CS(=O)(=O)c3ccc(F)cc3)sc2C)cc1`, which inhibition at 25 µM is on record?
The inhibition at 25 µM was 14.9%.

`COc1cc(C(=O)Nc2ccc(-c3nc4ccccc4[nH]3)cc2)cc(OC)c1OC` was tested. Which inhibition at 25 µM did it give?
Its inhibition at 25 µM is 27%.

For `CC1=C(CC(=O)c2cccc([N+](=O)[O-])c2)C(=O)c2ccccc2C1=O`, which inhibition at 25 µM is on record?
Its inhibition at 25 µM is 40.5%.

`CCCc1c(C)nc2ccc(Br)cc2c1O` was tested. Which inhibition at 25 µM did it give?
Its inhibition at 25 µM is 13.7%.

How did the inhibition at 25 µM turn out when `COc1ccc2nc(N)nc(C)c2c1` was run?
Its inhibition at 25 µM is 5.53%.

With `CCOc1cc2c(cc1OCC)C(c1cc(C)c(O)c(C)c1)NCC2` (stereo not drawn) as the compound, how does the inhibition at 25 µM read?
Its inhibition at 25 µM is 10.8%.

Which inhibition at 25 µM does the source give for `COc1ccccc1C(=O)ON=C(N)Cc1cccc2ccccc12` here?
Its inhibition at 25 µM is 52.3%.

With `CCN(CC)c1ccc(NC(=O)c2cccs2)cc1` as the compound, how does the inhibition at 25 µM read?
Its inhibition at 25 µM is 4.01%.

With `CCOc1cc2c(cc1OCC)C(c1cc(OC)c(O)cc1Cl)NCC2` (stereo not drawn) as the compound, how does the inhibition at 25 µM read?
The inhibition at 25 µM was 23.3%.
